{
  "source": "patent US6638910B2",
  "about": "“Compositions and methods for controlling plant pests” (priority 1997, dated 2003)",
  "key": {"Rhizoctonia solani": {"tested_on": "Rhizoctonia solani", "experiment": "Greenhouse test, Sheath Blight on Rice", "format": "in vivo"}, "Phytophthora infestans": {"tested_on": "Phytophthora infestans", "format": "in vivo", "conditions": "Tomato"}, "Plasmopara viticola": {"tested_on": "Plasmopara viticola", "experiment": "Greenhouse test, grape downy mildew", "conditions": "Chardonnay grape"}, "Uncinula necator": {"tested_on": "Uncinula necator", "experiment": "Greenhouse test, Powdery Mildew on Grape", "format": "in vivo"}, "Pyricularia oryzae": {"tested_on": "Pyricularia oryzae", "format": "in vivo", "conditions": "Rice"}, "Botrytis cinerea": {"tested_on": "Botrytis cinerea", "experiment": "Greenhouse test, Gray Mold on Pepper", "format": "in vivo"}, "E. graminis": {"tested_on": "E. graminis", "experiment": "Greenhouse test, Powdery Mildew on Wheat", "format": "in vivo, Erysiphe graminis f. sp. graminis"}, "[1]": {"tested_on": "N2 strain of the nematode Caenorhabditis elegans", "experiment": "96-well microplate nematicidal assay, score rating", "format": "in vivo", "conditions": "Table 16; score 1 (all dead or stunted) to 4 (no dead)"}, "[2]": {"tested_on": "pre-adult beet armyworms (Spodoptera exigua)", "experiment": "96-well microplate insecticidal assay, score rating", "format": "in vivo", "conditions": "Table 16; score 1 (all dead or stunted) to 4 (no dead)", "method": "(§1) Bacillus samples were grown in a Bacillus culture media. […] One day old streaked cultures were used to inoculate 250 mL baffled shake flasks. Flasks were shaken at 200 rpm at 29° C. for 5 days. To assay insecticidal activity, 35 mL of culture broth were centrifuged at 5,200 rpm for 20 minutes and the supernatant used in microassay described below. Assays were performed in 96-well microplates. […] To assay insecticidal activity, an agar substrate was prepared for the wells of the microplate according to Marrone et al. (1985), J. Econ. Entomol. 78: 290-293. […] Deionized water was used as a negative control. Two replicates of test sample or control were used for each assay. 40 μL of supernatant sample or whole broth grown in medium 1, 2 or 3 were dispensed into each sample well. Plates were then placed in a fume hood to dry for approximately 2-3 hours until the agar solution was dried. […] The microplate was sealed with an airtight substance such as Mylar®, and each well ventilated with a pin press. The plates were incubated at 27° C. for up to 7 days. After incubation, wells were scored by noting neonate mortality or the degree of larval development. […] Scores were averaged among replicates within each sample. […] It contained the same ingredients as medium 3 without proflo cotton seed extract. All other procedures were the same as above. The test was repeated two or three times."}, "[3]": {"tested_on": "pre-adult corn rootworms (Diabrotica undecimpunctata)", "experiment": "96-well microplate insecticidal assay, score rating", "format": "in vivo", "conditions": "Table 16; score 1 (all dead or stunted) to 4 (no dead)", "method": "as §1"}, "[4]": {"tested_on": "fungi including Penicillium chrysogenum", "conditions": "Peypoux et al. (1978) Tetrahedron 34:1147-1152; cited from earlier work"}, "Saccharomyces cerevesiae": {"tested_on": "Saccharomyces cerevesiae", "conditions": "Beeson et al. (1979) J. Antibiotics 32(8):828-833; cited from earlier work"}},
  "note": "Like-named read-outs stand apart in the source and are kept apart here. Starred links: 1 amine or outer side, 2 acyl side, 3 side chain; linkers in the order of their positions; H or OH if unused. Positions of bridges follow the written chain, without caps; N, C: chain ends. Non-standard residues stand in square brackets, D forms with d. Residues, ends and D or L forms follow the SMILES beside them. X1 = CC(C)CCCCCCCCC[C@H](CC(=O)[*:1])O[*:2]",
  "data": [
    {"compound": "CCCCNC(=O)n1c(NC(=O)OC)nc2ccccc21", "note": "[Benomyl]", "values": [
      {"measurement": "percent disease control, R. solani", "setting": "Rhizoctonia solani; 40 ppm", "result": 77, "unit": "%"},
      {"measurement": "percent disease control, R. solani", "setting": "Rhizoctonia solani; 100 ppm", "result": 100, "unit": "%"}
    ]},
    {"compound": "COCC(=O)N(c1c(C)cccc1C)C(C)C(=O)OC", "note": "(stereo not shown) [Metalaxyl]", "values": [
      {"measurement": "percent disease control, P. infestans", "setting": "Phytophthora infestans; 10 ppm", "result": 77, "unit": "%"},
      {"measurement": "percent disease control, P. infestans", "setting": "Phytophthora infestans; 30 ppm", "result": 100, "unit": "%"},
      {"measurement": "percent disease control", "setting": "Plasmopara viticola; 1 ppm", "result": 80, "unit": "% control"},
      {"measurement": "percent disease control", "setting": "Plasmopara viticola; 10 ppm", "result": 98.3, "unit": "% control"},
      {"measurement": "percent disease control", "setting": "Plasmopara viticola; 30 ppm", "result": 100, "unit": "% control"}
    ]},
    {"compound": "CCCCC(C#N)(Cn1cncn1)c1ccc(Cl)cc1", "note": "(stereo not shown) [Myclobutanil]", "values": [
      {"measurement": "percent disease control, U. necator", "setting": "Uncinula necator; 10 ppm", "result": 100, "unit": "%"},
      {"measurement": "percent disease control, U. necator", "setting": "Uncinula necator; 30 ppm", "result": 100, "unit": "%"}
    ]},
    {"compound": "O=C(Nc1ccccc1)N(Cc1ccc(Cl)cc1)C1CCCC1", "note": "[Pencycuron]", "values": [
      {"measurement": "percent disease control, P. oryzae", "setting": "Pyricularia oryzae; 10 ppm", "result": 100, "unit": "%"},
      {"measurement": "percent disease control, P. oryzae", "setting": "Pyricularia oryzae; 50 ppm", "result": 100, "unit": "%"}
    ]},
    {"compound": "CCCC1COC(Cn2cncn2)(c2ccc(Cl)cc2Cl)O1", "note": "(stereo not shown) [Propiconazole]", "values": [
      {"measurement": "percent disease control, B. cinerea", "setting": "Botrytis cinerea; 5 ppm", "result": 57, "unit": "%"},
      {"measurement": "percent disease control, B. cinerea", "setting": "Botrytis cinerea; 10 ppm", "result": 87, "unit": "%"},
      {"measurement": "percent disease control, E. graminis", "setting": "E. graminis; 0.2 ppm", "result": 54, "unit": "%"},
      {"measurement": "percent disease control, E. graminis", "setting": "E. graminis; 0.5 ppm", "result": 100, "unit": "%"}
    ]},
    {"compound": "CC(C)CCCCCCCCC[C@@H]1CC(=O)N[C@@H](CCC(=O)O)C(=O)N[C@@H](CC(C)C)C(=O)N[C@H](CC(C)C)C(=O)N[C@@H](C(C)C)C(=O)N[C@@H](CC(=O)O)C(=O)N[C@H](CC(C)C)C(=O)N[C@@H](CC(C)C)C(=O)O1", "note": "[Surfactin] (EL[dL]VD[dL]L; linker N-C via X1)", "values": [
      {"measurement": "Activity score, C. Elegans", "setting": "[1]", "result": 4.0},
      {"measurement": "Activity score, Beet armyworm", "setting": "[2]", "result": 4.0},
      {"measurement": "Activity score, Corn rootworm", "setting": "[3]", "result": 2.0}
    ]},
    {"compound": "Iturin-C", "values": [
      {"measurement": "activity against fungi", "setting": "[4]", "result": "inactive"}
    ]},
    {"compound": "bacillomycin L", "values": [
      {"measurement": "LC50", "setting": "Saccharomyces cerevesiae", "result": 30, "unit": "µg/mL"}
    ]},
    {"compound": "iturin-A", "values": [
      {"measurement": "LC50", "setting": "Saccharomyces cerevesiae", "result": 30, "unit": "µg/mL"}
    ]},
    {"compound": "mycosubtilin", "values": [
      {"measurement": "LC50", "setting": "Saccharomyces cerevesiae", "result": 10, "unit": "µg/mL"}
    ]}
  ]
}
